The target of one assay is His-Brd2(60-472) (Homo sapiens (Human), UniProt P25440). As to the kind of experiment: TR-FRET in-vitro binding assay for BRD2. The note with it: biochemical. In outline: (§1)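 Bromodomain protein (45 nM in its addition solution) and tetra-acetylated histone H4 peptide (AcK5/8/12/16; 60 nM in its addition solution) were incubated with compounds for 35 min at 30 °C in 50 mM HEPES pH 7.5, 50 mM NaCl, 0.005% Tween20, 0.1% BSA. Eu-anti-His6 plus streptavidin-allophycocyanin detection followed, with TR-FRET read-out.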
(In general: TR-FRET usually uses a lanthanide donor and a delayed reading to cut background.)

For a further assay, the target named is His-Brd3(20-477) (Homo sapiens (Human), UniProt Q15059). In words: TR-FRET in-vitro binding assay for BRD3. The note with it: biochemical. In outline: as §1
Assay [1] deals with nuclear BRD4-NUT foci in HCC2494 NUT midline carcinoma cells (Homo sapiens (Human), UniProt O60885+Q86Y26). As to the kind of experiment: Nut-foci formation assay. It is filed as cell-based. The settings on record: 24 hours, read-out: HCS Brd4-NUT IC50. In outline:
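HCC2494 cells carrying BRD4-NUT, treated 24 h at 37 °C with 3-fold dilutions from 10 μM. Fixed and stained with anti-NUT antibody, imaged automatically to count nuclear foci per nucleus.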

His-Brd3(20-477), sequence (Q15059 20-477): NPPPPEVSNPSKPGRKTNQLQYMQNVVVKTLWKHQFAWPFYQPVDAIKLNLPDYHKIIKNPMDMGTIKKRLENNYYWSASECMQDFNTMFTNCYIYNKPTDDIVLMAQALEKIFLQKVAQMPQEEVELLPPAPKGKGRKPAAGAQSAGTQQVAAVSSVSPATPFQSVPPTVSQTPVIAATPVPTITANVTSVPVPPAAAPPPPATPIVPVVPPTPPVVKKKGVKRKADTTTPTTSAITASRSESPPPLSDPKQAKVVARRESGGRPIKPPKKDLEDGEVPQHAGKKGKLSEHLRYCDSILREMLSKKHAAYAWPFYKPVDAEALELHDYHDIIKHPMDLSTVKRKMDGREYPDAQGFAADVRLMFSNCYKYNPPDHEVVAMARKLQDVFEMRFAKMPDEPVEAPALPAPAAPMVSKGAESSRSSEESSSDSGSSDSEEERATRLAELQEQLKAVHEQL
His-Brd2(60-472), sequence (P25440 60-472): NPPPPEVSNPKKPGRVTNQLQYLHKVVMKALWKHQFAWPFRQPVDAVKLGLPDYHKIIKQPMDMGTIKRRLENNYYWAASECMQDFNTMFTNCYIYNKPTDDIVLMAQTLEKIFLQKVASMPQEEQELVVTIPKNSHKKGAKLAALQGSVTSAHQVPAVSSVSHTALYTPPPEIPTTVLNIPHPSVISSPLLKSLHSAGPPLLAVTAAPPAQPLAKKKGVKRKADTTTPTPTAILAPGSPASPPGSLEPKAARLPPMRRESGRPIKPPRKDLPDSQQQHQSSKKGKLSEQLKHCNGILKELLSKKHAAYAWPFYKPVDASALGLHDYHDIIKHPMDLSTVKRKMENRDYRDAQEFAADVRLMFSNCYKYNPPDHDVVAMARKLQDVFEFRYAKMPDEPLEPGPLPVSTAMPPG

With `COc1ncc(-n2nc(C)c3c2C(=O)N(c2cc(C)c(=O)n(C)c2)[C@@H]3c2ccc(Cl)cc2)c(OC)n1` [Example 100, (R)-4-(4-chlorophenyl)-1-(2,4-dimethoxypyrimidin-5-yl)-5-(1,5-dimethyl-6-oxo-1,6-dihydropyridin-3-yl)-3-methyl-4,5-dihydropyrrolo[3,4-c]pyrazol-6(1H)-one], the figures for the IC50 (on His-Brd2(60-472); at His-Brd3(20-477); in assay [1]) were 28 nM, 27 nM and 42.1 nM, respectively.
`COc1ncccc1-n1nc(C)c2c1C(=O)N(c1cc(C)c(=O)n(C)c1)[C@@H]2c1ccc(Cl)cc1` [Example 128, (R)-4-(4-chlorophenyl)-5-(1,5-dimethyl-6-oxo-1,6-dihydropyridin-3-yl)-1-(2-methoxypyridin-3-yl)-3-methyl-4,5-dihydropyrrolo[3,4-c]pyrazol-6(1H)-one]: the values for the IC50 (on His-Brd2(60-472); on His-Brd3(20-477); in assay [1]) were 30 nM, 37 nM and 53.3 nM, respectively.
Take `CCc1nn(C2CC2)c2c1[C@@H](c1ccc(Cl)cc1)N(c1cc(C)c3nnc(C)n3c1)C2=O` [Example 107, (R)-4-(4-chlorophenyl)-1-cyclopropyl-5-(3,8-dimethyl-[1,2,4]triazolo[4,3-a]pyridin-6-yl)-3-ethyl-4,5-dihydropyrrolo[3,4-c]pyrazol-6(1H)-one]: the IC50 was determined as 14 nM at His-Brd2(60-472), 13 nM at His-Brd3(20-477) and 2.9 nM in assay [1].
The matching figures for `COc1ncc(-n2nc3c(c2C)C(c2ccc(Cl)cc2)N(c2cc(Cl)c(=O)n(C)c2)C3=O)c(OC)n1` (stereo not drawn) [Example 55, 5-(5-chloro-1-methyl-6-oxo-1,6-dihydropyridin-3-yl)-4-(4-chlorophenyl)-2-(2,4-dimethoxypyrimidin-5-yl)-3-methyl-4,5-dihydropyrrolo[3,4-c]pyrazol-6(2H)-one]: 98 nM, 79 nM and 54.1 nM.
The matching figures for `Cc1nn(-c2ccnn2C)c2c1C(c1ccc(Cl)cc1)N(c1cc(C)c3nnc(C)n3n1)C2=O` (stereo not drawn) [Example 114, 4-(4-chlorophenyl)-5-(3,8-dimethyl-[1,2,4]triazolo[4,3-b]pyridazin-6-yl)-3-methyl-1-(1-methyl-1H-pyrazol-5-yl)-4,5-dihydropyrrolo[3,4-c]pyrazol-6(1H)-one]: 35 nM, 37 nM and 23.2 nM.
In the case of `Cc1nn(C(=O)N(C)C)c2c1C(c1ccc(Cl)cc1)N(c1cc(C)c(=O)n(C)c1)C2=O` (stereo not drawn) [Example 142, 4-(4-chlorophenyl)-5-(1,5-dimethyl-6-oxo-1,6-dihydropyridin-3-yl)-N,N,3-trimethyl-6-oxo-5,6-dihydropyrrolo[3,4-c]pyrazole-1(4H)-carboxamide], the results for the IC50 (at His-Brd2(60-472); on His-Brd3(20-477); in assay [1]) were 180 nM, 150 nM and 149 nM, respectively.
The matching figures for `Cc1ncccc1-n1nc(C)c2c1C(=O)N(c1cc(C)c(=O)n(C)c1)C2c1ccc(Cl)cc1` (stereo not drawn) [Example 82, 4-(4-chlorophenyl)-5-(1,5-dimethyl-6-oxo-1,6-dihydropyridin-3-yl)-3-methyl-1-(2-methylpyridin-3-yl)-4,5-dihydropyrrolo[3,4-c]pyrazol-6(1H)-one]: 97 nM, 96 nM and 29.4 nM.
The matching figures for `Cc1nn(C[C@H](O)C(F)(F)F)c2c1[C@@H](c1ccc(Cl)cc1)N(c1cc(C)c3nnc(C)n3c1)C2=O` [Example 167, (R)-4-(4-chlorophenyl)-5-(3,8-dimethyl-[1,2,4]triazolo[4,3-a]pyridin-6-yl)-3-methyl-1-((S)-3,3,3-trifluoro-2-hydroxypropyl)-4,5-dihydropyrrolo[3,4-c]pyrazol-6(1H)-one]: 42 nM, 45 nM and 33.3 nM.
The matching figures for `Cc1nn(-c2ccnn2C)c2c1C(c1ccc(Cl)cc1)N(c1cc(C)c3nnc(C)n3c1)C2=O` (stereo not drawn) [Example 90, 4-(4-chlorophenyl)-5-(3,8-dimethyl-[1,2,4]triazolo[4,3-a]pyridin-6-yl)-3-methyl-1-(1-methyl-1H-pyrazol-5-yl)-4,5-dihydropyrrolo[3,4-c]pyrazol-6(1H)-one]: 28 nM, 28 nM and 45 nM.
Turning to `CCOc1c2c(nn1C)C(=O)N(c1cc(C)c(=O)n(C)c1)C2c1ccc(Cl)cc1` (stereo not drawn) [Example 76, 4-(4-chlorophenyl)-5-(1,5-dimethyl-6-oxo-1,6-dihydropyridin-3-yl)-3-ethoxy-2-methyl-4,5-dihydropyrrolo[3,4-c]pyrazol-6(2H)-one], the values for the IC50 (at His-Brd2(60-472); on His-Brd3(20-477); in assay [1]) were 100 nM, 100 nM and 106 nM, respectively.
With `CCc1nn(-c2ccnn2C)c2c1C(c1ccc(Cl)cc1)N(c1cc(C)c(=O)n(C)c1)C2=O` (stereo not drawn) [Example 89, 4-(4-chlorophenyl)-5-(1,5-dimethyl-6-oxo-1,6-dihydropyridin-3-yl)-3-ethyl-1-(1-methyl-1H-pyrazol-5-yl)-4,5-dihydropyrrolo[3,4-c]pyrazol-6(1H)-one], the values for the IC50 (at His-Brd2(60-472); at His-Brd3(20-477); in assay [1]) were 60 nM, 57 nM and 44.3 nM, respectively.
On to `Cc1nn(C2CC2)c2c1[C@@H](c1ccc(Cl)cc1)N(c1cc(Cl)c(=O)n(C)c1)C2=O` [Example 51, (R)-5-(5-chloro-1-methyl-6-oxo-1,6-dihydropyridin-3-yl)-4-(4-chlorophenyl)-1-cyclopropyl-3-methyl-4,5-dihydropyrrolo[3,4-c]pyrazol-6(1H)-one], for which the results for the IC50 (at His-Brd2(60-472); at His-Brd3(20-477); in assay [1]) were 17 nM, 21 nM and 76.4 nM, respectively.
In the case of `CNC(=O)n1nc(C)c2c1C(=O)N(c1cc(C)c(=O)n(C)c1)C2c1ccc(Cl)cc1` (stereo not drawn) [Example 143, 4-(4-chlorophenyl)-5-(1,5-dimethyl-6-oxo-1,6-dihydropyridin-3-yl)-N,3-dimethyl-6-oxo-5,6-dihydropyrrolo[3,4-c]pyrazole-1(4H)-carboxamide], the IC50 is 330 nM on His-Brd2(60-472), 270 nM at His-Brd3(20-477) and 206 nM in assay [1].
The matching figures for `CCOC(=O)N1CC(n2nc(C)c3c2C(=O)N(c2cc(C)c4nnc(C)n4c2)C3c2ccc(Cl)cc2)C1` (stereo not drawn) [Example 156, Ethyl 3-(4-(4-chlorophenyl)-5-(3,8-dimethyl-[1,2,4]triazolo[4,3-a]pyridin-6-yl)-3-methyl-6-oxo-5,6-dihydropyrrolo[3,4-c]pyrazol-1(4H)-yl)azetidine-1-carboxylate]: 59 nM, 77 nM and 43.3 nM.
As to `CCc1nn(CCO)c2c1C(c1ccc(Cl)cc1)N(c1cc(C)c3onc(C)c3c1)C2=O` (stereo not drawn) [Example 79, 4-(4-chlorophenyl)-5-(3,7-dimethylbenzo[d]isoxazol-5-yl)-3-ethyl-1-(2-hydroxyethyl)-4,5-dihydropyrrolo[3,4-c]pyrazol-6(1H)-one], the 50% inhibitory concentration (IC50) is 110 nM on His-Brd2(60-472), 86 nM on His-Brd3(20-477) and 150 nM in assay [1].
The matching figures for `CNC(=O)n1nc(C)c2c1C(=O)N(c1cc(C)c3nnc(C)n3c1)C2c1ccc(Cl)cc1` (stereo not drawn) [Example 145, 4-(4-chlorophenyl)-5-(3,8-dimethyl-[1,2,4]triazolo[4,3-a]pyridin-6-yl)-N,3-dimethyl-6-oxo-5,6-dihydropyrrolo[3,4-c]pyrazole-1(4H)-carboxamide]: 180 nM, 190 nM and 108 nM.
The matching figures for `Cc1nn(C2CC2)c2c1C(c1ccc(Cl)cc1)N(c1ccc3nnn(C)c3n1)C2=O` (stereo not drawn) [Example 102, 4-(4-chlorophenyl)-1-cyclopropyl-3-methyl-5-(3-methyl-3H-[1,2,3]triazolo[4,5-b]-pyridin-5-yl)-4,5-dihydropyrrolo[3,4-c]pyrazol-6(1H)-one]: 72 nM, 55 nM and 230 nM.
The matching figures for `Cc1nn(C2CN(C)C2)c2c1C(c1ccc(Cl)cc1)N(c1cc(C)c3nnc(C)n3c1)C2=O` (stereo not drawn) [Example 157, 4-(4-chlorophenyl)-5-(3,8-dimethyl-[1,2,4]triazolo[4,3-a]pyridin-6-yl)-3-methyl-1-(1-methylazetidin-3-yl)-4,5-dihydropyrrolo[3,4-c]pyrazol-6(1H)-one]: 77 nM, 200 nM and 99.7 nM.
For `CCc1nn(CCOC)c2c1C(c1ccc(Cl)cc1)N(c1cc(C)c3nnc(C)n3c1)C2=O` (stereo not drawn) [Example 87, 4-(4-chlorophenyl)-5-(3,8-dimethyl-[1,2,4]triazolo[4,3-a]pyridin-6-yl)-3-ethyl-1-(2-methoxyethyl)-4,5-dihydropyrrolo[3,4-c]pyrazol-6(1H)-one], the figures for the IC50 (at His-Brd2(60-472); on His-Brd3(20-477); in assay [1]) were 72 nM, 59 nM and 17.3 nM, respectively.
The matching figures for `Cc1cc(N2C(=O)c3c(cnn3C3CC3)C2c2ccc(Cl)cc2)cn(C)c1=O` (stereo not drawn) [Example 34, 4-(4-chlorophenyl)-1-cyclopropyl-5-(1,5-dimethyl-6-oxo-1,6-dihydropyridin-3-yl)-4,5-dihydropyrrolo[3,4-c]pyrazol-6(1H)-one]: 95 nM, 110 nM and 202 nM.
The matching figures for `Cc1cc(N2C(=O)c3nn(C)c(O)c3C2c2ccc(Cl)cc2)cn(C)c1=O` (stereo not drawn) [Example 73, 4-(4-chlorophenyl)-5-(1,5-dimethyl-6-oxo-1,6-dihydropyridin-3-yl)-3-hydroxy-2-methyl-4,5-dihydropyrrolo[3,4-c]pyrazol-6(2H)-one]: 200 nM, 200 nM and above 10000 nM.

One may read the IC50 as the concentration at which inhibition is half-maximal.
